Data from US20090215889A1, “Novel Use of Zinc Gluconate for Treating Hydradenitis Suppurativa” (LABCATAL, priority 2005, published 2009).
Where “and” joins values, the source holds several entries; their conditions need not be identical. Equal entries are not always repeated.

What was measured:
[1] = system: suppurative hidradenitis; assay: clinical observation of oral zinc gluconate in 20 patients with suppurative hidradenitis; type: in vivo, human; design: key to Rep (response of the individual patient): CR: complete remission; PR: partial remission
Description: The efficacy of zinc gluconate in the treatment of suppurative hidradenitis was verified by the clinical observation performed on 20 patients, 16 of whom were monitored for a period of up to 24 months.
20 patients, 14 women and 6 men, from 23 to 72 years old, whose history of the disease ranged from 6 to 13 years, were placed on 90 mg of zinc gluconate per day for a period of a few months to 3 years.
In 34% of the cases, the location of the lesions was inguinal, axillary in 24% of the cases, and on the buttocks in 17% of the cases. The other affected regions in 5% to 7% of the cases were the chest, the pubis or the perineum.
“Dose 1” is the dose administered at the start of the treatment. “Dose 2” is the maintenance dose. The medical monitoring was generally from 4 to 8 months, and in a few cases it was extended beyond 12 months.

[2] = Vidal monograph, overdose section; cited from earlier work
[3] = tolerance to oral zinc gluconate doses; type: in vivo, human; settings: for example 90 mg/day
[4] = system: suppurative hidradenitis; settings: oral; open study on 80 patients; cited from earlier work
[5] = system: suppurative hidradenitis; settings: cited from earlier work
[6] = of 20 patients, 90 mg zinc gluconate per day, monitoring for several months

zinc gluconate
patients for whom the treatment proved to be ineffective ([1]; of 20 patients, 90 mg zinc gluconate per day): one | patients showing a full remission of the disease [1, 6]: 9 patients | patients showing a full remission of the disease (percentage) [1, 6]: 45% | patients showing a partial remission [1, 6]: 6 patients | patients showing a partial remission (percentage) [1, 6]: 30% | efficacy in the treatment of suppurative hidradenitis ([1]; oral, 60 to 120 mg per day attack treatment, 15 to 90 mg per day maintenance treatment): satisfactory efficacy | Rep (response of the individual patient) ([1]; patient (No. 1-20), oral, Dose 1 60-120 mg/day at start, Dose 2 maintenance, monitoring 3 to >12 months): PR (6×) and CR (9×) and ineff. | probability of an acute intoxication [2]: zero | observed side effects [3]: only digestive | systemic toxicity [3]: no systemic toxicity to be feared | tolerance ([3]; i.e. 6 gel capsules containing a 15 mg dose): usually good

CC1=C(/C=C/C(C)=C/C=C/C(C)=C\C(=O)O)C(C)(C)CCC1 [isotretinoin]
results of treatment [4]: very mediocre results

CC(=O)O[C@]1(C(C)=O)CC[C@H]2[C@@H]3C=C(Cl)C4=CC(=O)[C@@H]5C[C@@H]5[C@]4(C)[C@H]3CC[C@@]21C [cyproterone acetate]
efficacy ([5]; 100 mg/day of cyproterone acetate, small number of patients): efficacy only at large doses | outcome on dose reduction ([5]; dose reduced to 50 mg): recurrence
